Experimental data: US10548318B2, “N-(tetrazol-5-yl)- and N-(triazol-5-yl)arylcarboxamide derivatives with herbicidal action” (Bayer CropScience Aktiengesellschaft, priority 2015, dated 2020)

Columns and labels:
Format in all cases: in vivo
Amaranthus retroflexus = assay: Pre-emergence herbicidal action against harmful plants; conditions: 504 h, application rate 320 g/ha, visual scoring after 3 weeks vs untreated controls, read-out: herbicidal activity in percent against Amaranthus retroflexus
Excerpt: (§1) Seeds of monocotyledonous and dicotyledonous weed plants and crop plants are laid out in wood-fiber pots in sandy loam and covered with soil. The compounds of the invention, formulated in the form of wettable powders (WP) or as emulsion concentrates (EC), are then applied to the surface of the covering soil in the form of an aqueous suspension or emulsion at a water application rate equating to 600 to 800 I/ha, with addition of 0.2% wetting agent. After the treatment, the pots are placed in a greenhouse and kept under good growth conditions for the trial plants. The damage to the test plants is scored visually after a test period of 3 weeks by comparison with untreated controls (herbicidal activity in percent (%): 100% activity=the plants have died, 0% activity=like control plants). Here, for example, the compounds Nos. 1-384, 1-390, 3-384, 5-384, 19-384, 9-390, 21-384, 23-384 and 28-390, at an application rate of 320 g/ha, each show an activity of at least 80% against Stellaria media and Amaranthus retroflexus.

Stellaria media [1] = assay: as above; conditions: 504 h, application rate 320 g/ha, visual scoring after 3 weeks vs untreated controls, read-out: herbicidal activity in percent against Stellaria media
Excerpt: as §1

Stellaria media [2] = assay: Post-emergence herbicidal action against harmful plants; conditions: 504 h, application rate 80 g/ha, visual assessment after about 3 weeks vs untreated controls, read-out: herbicidal action in percent against Stellaria media
Method: (§2) Seeds of monocotyledonous and dicotyledonous weed and crop plants are laid out in sandy loam soil in wood-fiber pots, covered with soil and cultivated in a greenhouse under good growth conditions. 2 to 3 weeks after sowing, the test plants are treated at the one-leaf stage. The compounds of the invention, formulated in the form of wettable powders (WP) or as emulsion concentrates (EC), are then sprayed onto the green parts of the plants in the form of an aqueous suspension or emulsion at a water application rate equating to 600 to 800 I/ha, with addition of 0.2% wetting agent. After the test plants have been left to stand in the greenhouse under optimal growth conditions for about 3 weeks, the action of the preparations is assessed visually in comparison to untreated controls (herbicidal action in percent (%): 100% activity=the plants have died, 0% activity=like control plants). Here, for example, the compounds Nos. 1-384, 1-390, 3-384, 5-384, 19-384, 9-390, 21-384, 23-384, 28-390 and 32-384, at an application rate of 80 g/ha, each show an activity of at least 80% against Stellaria media and Veronica persica.

Veronica persica = assay: as above; conditions: 504 h, application rate 80 g/ha, visual assessment after about 3 weeks vs untreated controls, read-out: herbicidal action in percent against Veronica persica
Method: as §2

[3] = test system: Polygonum convolvulus (POLCO); assay: Comparative experiment in pre-emergence; conditions: dosage 320 g/ha
Excerpt: as §1
For comparative purposes, the herbicidal activity of some compounds according to the invention and the most structurally similar compounds known from the prior art were tested.

| SMILES | pest or weed control at 320 g/ha (Amaranthus retroflexus) [%] | pest or weed control at 320 g/ha (Stellaria media [1]) [%] | pest or weed control at 80 g/ha (Stellaria media [2]) [%] | pest or weed control at 80 g/ha (Veronica persica) [%] | Herbicidal activity against POLCO [3] [%] |
| --- | --- | --- | --- | --- | --- |
| CCOC(=O)OC(C)OC(=Nc1nnnn1C)c1ccc(C(F)(F)F)c(SC)c1Cl (stereo not shown) [No. 19-384, 1-[(ethoxycarbonyl)oxy]ethyl 2-chloro-3-(methylsulfanyl)-N-(1-methyl-1H-tetrazol-5-yl)-4-(trifluoromethyl)benzenecarboximidate] | ≥ 80 | ≥ 80 | ≥ 80 | ≥ 80 | – |
| CSc1c(C(F)(F)F)ccc(C(=O)N=c2n(C)nnn2C(C)OC(=O)OC2CCCCC2)c1Cl (stereo not shown) [No. 5-384, 1-(5-{[2-chloro-3-(methylsulfanyl)-4-(trifluoromethyl)benzoyl]imino}-4-methyl-4,5-dihydro-1H-tetrazol-1-yl)ethyl cyclohexyl carbonate] | ≥ 80 | ≥ 80 | ≥ 80 | ≥ 80 | – |
| CCOC(=O)OC(C)OC(=Nc1nnnn1C)c1ccc(C)c(S(C)(=O)=O)c1Cl (stereo not shown) [No. 19-390, 1-[(ethoxycarbonyl)oxy]ethyl 2-chloro-4-methyl-3-(methylsulfonyl)-N-(1-methyl-1H-tetrazol-5-yl)benzenecarboximidate] | – | – | – | – | 100 |
| CCOC(=O)OC(C)n1nnn(C)c1=NC(=O)c1ccc(C(F)(F)F)c(SC)c1Cl (stereo not shown) [No. 1-384, 1-(5-{[2-chloro-3-(methylsulfanyl)-4-(trifluoromethyl)benzoyl]imino}-4-methyl-4,5-dihydro-1H-tetrazol-1-yl)ethyl ethyl carbonate] | ≥ 80 | ≥ 80 | ≥ 80 | ≥ 80 | – |
| CSc1c(C(F)(F)F)ccc(C(=Nc2nnnn2C)OC(C)OC(=O)OC2CCCCC2)c1Cl (stereo not shown) [No. 23-384, 1-{[(cyclohexyloxy)carbonyl]oxy}ethyl 2-chloro-3-(methylsulfanyl)-N-(1-methyl-1H-tetrazol-5-yl)-4-(trifluoromethyl)benzenecarboximidate] | ≥ 80 | ≥ 80 | ≥ 80 | ≥ 80 | 90 |
| COC(=O)OC(C)OC(=Nc1nnnn1C)c1ccc(C(F)(F)F)c(SC)c1Cl (stereo not shown) [No. 21-384, 1-[(Methoxycarbonyl)oxy]ethyl 2-chloro-3-(methylsulfanyl)-N-(1-methyl-1H-tetrazol-5-yl)-4-(trifluoromethyl)benzenecarboximidate] | ≥ 80 | ≥ 80 | ≥ 80 | ≥ 80 | 100 |
| CCOC(=O)OC(C)n1nnn(C)c1=NC(=O)c1ccc(C)c(S(C)(=O)=O)c1Cl (stereo not shown) [No. 1-390, 1-(5-{[2-chloro-4-methyl-3-(methylsulfonyl)benzoyl]imino}-4-methyl-4,5-dihydro-1H-tetrazol-1-yl)ethyl ethyl carbonate] | ≥ 80 | ≥ 80 | ≥ 80 | ≥ 80 | 100 |
| COC(=O)OC(C)n1nnn(C)c1=NC(=O)c1ccc(C(F)(F)F)c(SC)c1Cl (stereo not shown) [No. 3-384, 1-(5-{[2-chloro-3-(methylsulfanyl)-4-(trifluoromethyl)benzoyl]imino}-4-methyl-4,5-dihydro-1H-tetrazol-1-yl)ethyl methyl carbonate] | ≥ 80 | ≥ 80 | ≥ 80 | ≥ 80 | – |
| CCOC(=O)OC(C)N(C(=O)c1ccc(C)c(S(C)(=O)=O)c1Cl)c1nnnn1C (stereo not shown) [No. 28-390, 1-{[2-chloro-4-methyl-3-(methylsulfonyl)benzoyl](1-methyl-1H-tetrazol-5-yl)amino}ethyl ethyl carbonate] | ≥ 80 | ≥ 80 | ≥ 80 | ≥ 80 | 90 |
